Experimental data as given in patent publication US20050267182A1, “Urea derivatives as FLT-3 modulators” (Ambit Biosciences Corporation, priority 2003, published 2005).

How the values were obtained:
CS0002 = experiment: Cell Assay: CS0002; assay type: cell-based; conditions: cell assay code CS0002
FLT3 = target: T1, FLT3 (Homo sapiens, UniProt P36888); experiment: Binding constant (Kd) measurement, phage-displayed kinase competition binding assay; conditions: for Binding Assay: FLT3(DKIN): FLT3(DKIN) construct; for Binding Assay: FLT3(JMminus): FLT3(JMminus) construct
T1 construct: FLT3(DKIN); made in house
T1 sequence (P36888 610-943 limits assumed): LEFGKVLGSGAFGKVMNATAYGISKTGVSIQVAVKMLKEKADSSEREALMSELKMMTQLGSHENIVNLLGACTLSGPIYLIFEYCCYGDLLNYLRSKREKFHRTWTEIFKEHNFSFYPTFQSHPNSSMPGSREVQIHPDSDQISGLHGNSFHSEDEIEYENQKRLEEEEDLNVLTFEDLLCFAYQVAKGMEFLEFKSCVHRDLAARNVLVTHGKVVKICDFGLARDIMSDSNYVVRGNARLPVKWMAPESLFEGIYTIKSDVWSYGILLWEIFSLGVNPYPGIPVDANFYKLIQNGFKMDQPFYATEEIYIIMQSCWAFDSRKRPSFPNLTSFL
Source text: Binding Constant (Kd) Measurements for Small-Molecule-Kinase Interactions
The term “ND” represents non-determined values.

CS0005 = experiment: Cell Assay: CS0005; assay type: cell-based; conditions: cell assay code CS0005
MV4,11 cells = experiment: FLT3 assay using MV4,11 cells (cellular proliferation, MTS); assay type: cell-based, human; conditions: cell assay code CS0001
Outline: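 MV4,11 AML cells, […] switch to DMEM/10% FBS overnight, plated at 10,000 cells/well and exposed to serially diluted compounds in duplicate for 3 days at 37° C., 5% CO2. Proliferation read by MTS added for 2 h.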

SMILES	Cell Assay: CS0002:IC50 (CS0002)	Binding Assay: FLT3(DKIN) (FLT3)	Cell Assay: CS0005:IC50 (CS0005)	Cell Assay: CS0001:IC50 (MV4,11 cells)	IC50 (CS0002)	Binding Assay: FLT3(JMminus) (FLT3)	Binding Assay: FLT3(JMplus) (FLT3; FLT3(JMplus) construct)
CC(C)(C)c1cc(NC(=O)Nc2ccc(NC(=O)c3cn4cc(Cl)ccc4n3)cc2)no1 [Compound N3]	+ +	+ + + +	+ + + +	+ + + +			
CC(C)(C)c1cc(NC(=O)Nc2ccc(NC(=O)c3cccc(Cl)n3)cc2)no1 [Compound N4]	+ +	+ + + +	+ + + +	+ + + +			
Cn1nc(-c2ccccc2)c2cc(C(=O)Nc3ccc(NC(=O)Nc4cc(C(C)(C)C)on4)cc3)sc21 [Compound N5]	+ + +	+ + + +	+ + + +	+ + + +			
CC(C)(C)c1cc(NC(=O)Nc2ccc(NC(=O)c3cccc(F)n3)cc2)no1 [Compound N8]		+ + + +	+ + + +	+ + + +	> 10 µM		
CC(C)(C)c1cc(NC(=O)Nc2ccc(NC(=O)c3cn4nc(Cl)ccc4n3)cc2)no1 [Compound N9]	+ +	+ + + +	+ + + +	+ + + +			
CC(C)(C)c1cc(NC(=O)Nc2ccc(NC(=O)c3csc(-c4ccncc4)n3)cc2)no1 [Compound N16]		+ + + +	+ + +	+ + + +	> 10 µM		
CC(C)(C)c1cc(NC(=O)Nc2ccc(NC(=O)/C=C/c3ccccc3Cl)cc2)no1 [Compound N40]		+ + + +	+ + + +	+ + + +	> 10 µM		
Cc1cccnc1C(=O)Nc1ccc(NC(=O)Nc2cc(C(C)(C)C)on2)cc1 [Compound N41]		+ + + +	+ + + +	+ + + +	> 10 µM		
Cc1cc(C)nc(N(C)c2ccc(C(=O)Nc3ccc(NC(=O)Nc4cc(C(C)(C)C)on4)cc3)cc2)n1 [Compound N50]	+ +	+ + + +	+ + +	+ + + +			
COc1ccnc(Nc2ccc(C(=O)Nc3ccc(NC(=O)Nc4cc(C(C)(C)C)on4)cc3)cc2)n1 [Compound N51]	+ +	+ + + +	+ + + +	+ + + +			
CC(C)(C)c1cc(NC(=O)Nc2ccc(NC(=O)c3cc(N4CCOCC4)nc(N4CCOCC4)n3)cc2)no1 [Compound N54]	+ + +	+ + + +	+ + + +	+ + + +			
CC(C)(C)c1cc(NC(=O)Nc2ccc(NC(=O)c3cscn3)cc2)no1 [Compound N57]		+ + + +	+ + + +	+ + + +	> 10 µM		
CC(C)(C)c1cc(NC(=O)Nc2ccc(NC(=O)c3cc4cccc5c4n(c3=O)CC5)cc2)no1 [Compound N60]		+ + + +	+ + + +	+ + + +	> 10 µM		
CC(=O)c1ccc(N2CCC(C(=O)Nc3ccc(NC(=O)Nc4cc(C(C)(C)C)on4)cc3)CC2)cc1 [Compound N65]		+ + + +	+ + +	+ + + +	> 10 µM		
CC(C)(C)c1cc(NC(=O)Nc2ccc(NC(=O)CSCC(=O)Nc3ccccc3)cc2)no1 [Compound N72]	+ +		+ + + +	+ + + +		+ + + +	
CC(C)(C)c1cc(NC(=O)Nc2ccc(NC(=O)c3cn4c(n3)sc3ccccc34)cc2)no1 [Compound N73]	+ + +		+ + + +	+ + + +		+ + + +	
C=N/C(=N\C)Oc1cccc(C(=O)Nc2ccc(NC(=O)Nc3cc(C(C)(C)C)on3)cc2)c1 [Compound N74]	+ +		+ + + +	+ + + +		+ + + +	
CC(=O)Oc1cccnc1C(=O)Nc1ccc(NC(=O)Nc2cc(C(C)(C)C)on2)cc1 [Compound N79]	+ +		+ + + +	+ + + +		+ + + +	
CC(C)(C)c1cc(NC(=O)Nc2ccc(NC(=O)c3cccc[n+]3[O-])cc2)no1 [Compound N81]			+ + + +	+ + + +	> 10 µM	+ + + +	
Cc1ccc(C(=O)Nc2ccc(NC(=O)Nc3cc(C(C)(C)C)on3)cc2)cc1 [Compound N92]		+ + + +	+ + + +	+ + + +	> 10 µM		
CC(C)(C)c1cc(NC(=O)Nc2ccc(C(=O)Nc3ccc(OCC4CCC4)cc3)cc2)no1 [Compound N100]	+ +	+ + + +	+ + + +	+ + + +	> 10 µM		

Results, then the molecule that gave them:

Cell Assay: CS0002:IC50 (CS0002)	Binding Assay: FLT3(DKIN) (FLT3)	Cell Assay: CS0005:IC50 (CS0005)	Cell Assay: CS0001:IC50 (MV4,11 cells)	IC50 (CS0002)	Binding Assay: FLT3(JMminus) (FLT3)	Binding Assay: FLT3(JMplus) (FLT3; FLT3(JMplus) construct)	SMILES
+ +	+ + + +	+ + + +	+ + + +				CC(C)(C)c1cc(NC(=O)Nc2ccc(NC(=O)c3cnc4ccccc4c3)cc2)no1 [Compound N108]
	+ + + +	+ + +	+ + + +	> 10 µM			CC(C)(C)c1cc(NC(=O)Nc2ccc(NC(=O)c3cccc4nsnc34)cc2)no1 [Compound N109]
	+ + + +	+ + + +	+ + + +	> 10 µM			COC(=O)c1ccc(C(=O)Nc2ccc(NC(=O)Nc3cc(C(C)(C)C)on3)cc2)nc1 [Compound N113]
+ +	+ + + +	+ + +	+ + + +				CSc1ncc(Br)c(C(=O)Nc2ccc(NC(=O)Nc3cc(C(C)(C)C)on3)cc2)n1 [Compound N114]
+ + +	+ + + +	+ + + +	+ + + +				CC(C)(C)c1cc(NC(=O)Nc2ccc(NC(=O)c3cccc4cccnc34)cc2)no1 [Compound N115]
+ +	+ + + +	+ + + +	+ + + +				Cc1nn(C)c(Cl)c1C(=O)Nc1ccc(NC(=O)Nc2cc(C(C)(C)C)on2)cc1 [Compound N116]
+ +	+ + + +	+ + + +	+ + + +				Cn1cc(C(=O)Nc2ccc(NC(=O)Nc3cc(C(C)(C)C)on3)cc2)c2ccccc21 [Compound N119]
+ +	+ + + +	+ + + +	+ + + +				Cc1cccc(C(=O)Nc2ccc(NC(=O)Nc3cc(C(C)(C)C)on3)cc2)n1 [Compound N121]
	+ + + +	+ + + +	+ + + +	> 10 µM			CC(C)(C)c1cc(NC(=O)Nc2ccc(NC(=O)c3ccc4sccc4c3)cc2)no1 [Compound N122]
+ + +	+ + + +	+ + + +	+ + + +				CC(C)(C)c1cc(NC(=O)Nc2ccc(NC(=O)c3cc4cc(Br)ccc4s3)cc2)no1 [Compound N126]
+ +		+ + + +	+ + + +		+ + + +		Cc1ccc2[nH]c(C(=O)Nc3ccc(NC(=O)Nc4cc(C(C)(C)C)on4)cc3)cc2c1 [Compound N127]
	+ + + +	+ + +	+ + + +	> 10 µM			CC(C)(C)c1cc(NC(=O)Nc2ccc(NC(=O)c3cccc(O)n3)cc2)no1 [Compound N131]
+ +	+ + + +	+ + + +	+ + + +				Cc1ccc2sc(C(=O)Nc3ccc(NC(=O)Nc4cc(C(C)(C)C)on4)cc3)cc2c1 [Compound N133]
+ +	+ + + +	+ + + +	+ + + +		+ + + +	+ + +	CC(C)(C)c1cc(NC(=O)Nc2ccc(NC(=O)c3ncccc3O)cc2)no1 [Compound N134]
